Test results reported in patent publication US11230535B2, “CFTR regulators and methods of use thereof” (THE REGENTS OF THE UNIVERSITY OF CALIFORNIA, priority 2015, dated 2022).
“Also recorded” adds a separate entry of the source.

Assays:
CaCC in HT-29 cells = test: Non-TMEM16A CaCC plate reader assay in HT-29 cells expressing YFP; assay type: cell-based; conditions: 10 μM
Description: (§1) Platereader assays of chloride channel function. CFTR activity was assayed as described. FRT cells co-expressing YFP and wildtype CFTR were washed with phosphate-buffered saline (PBS) and then incubated for 10 min with test compounds in PBS containing 125 nM forskolin. I^− influx was measured in a plate reader with initial baseline read for 2 s and then for 12 s after rapid addition of an I^−-containing solution. TMEM16A activity was assayed similarly as described using FRT cells co-expressing YFP and TMEM16A. Activity of non-TMEM16A CaCC was assayed as described in HT-29 cells expressing YFP. In each assay initial rates of I^− influx were computed as a linear measure of channel function.

[1] = test system: human bronchial epithelial (HBE) cells; test: Short-circuit current in primary human bronchial epithelial (HBE) cells; assay type: cell-based; conditions: for short-circuit current responses to ENaC, maximal forskolin or ATP: 10 μM, 10 min pretreatment
Description: FIGS. 16A-16E. Characterization of 6k and 12. FIG. 16A. Cellular cAMP in FRT cells following incubation for 10 min with 10 μM 6k or 12, without or with 90 nM forskolin (fsk), as well as forskolin alone (90 nM and 20 μM) and forskolin (20 μM)+IBMX (100 μM) (mean±S.E.M., n=4). FIG. 16B. Cytoplasmic calcium measured by Fluo-4 fluorescence. FRT cells were pretreated for 5 min with 10 μM 6k or 12 (or control), with 100 μM ATP added as a calcium agonist as indicated. FIG. 16C. TMEM16A activity measured in FRT cells expressing YFP showing no inhibition (left, iodide+ATP addition) or activation (right, iodide addition) by 10 μM 6k or 12. FIG. 16D. […] FIG. 16E. (left) Short circuit-current in primary cultures of human bronchial epithelial cells in response to agonists and inhibitors that target key ion transport processes: 20 μM amiloride (ami); 20 μM forskolin (fsk); 10 μM CFTRinh-172; 100 μM ATP. Experiments were done without activator or following 10-min preincubation with 10 μM 6k or 12 (right). CFTR activation by 12 after 100 nM forskolin (20 μM amil, 10 μM CFTRinh-172, 100 μM ATP). Studies in B-E are representative of 2-4 separate sets of experiments.
Short-circuit current measurement. Short-circuit current measurements were done as described. Briefly, Snapwell (Corning Costar, Corning, N.Y.) inserts containing CFTR-expressing FRT cells or human bronchial epithelial cells were mounted in Ussing chambers (Physiological Instruments, San Diego, Calif.). For FRT cells the hemichambers were filled with 5 ml of HCO3^−-buffered solution (basolateral) and half-Cl^− solution (apical), and the basolateral membrane was permeabilized with 250 μg/ml amphotericin B. Symmetrical HCO3^−-buffered solutions were used for human bronchial epithelial cells. Solutions were bubbled with 95% O2/5% CO2 and maintained at 37° C., and short-circuit current was measured on a DVC-1000 voltage clamp (World Precision Instruments Inc., Sarasota, Fla.) using Ag/AgCl electrodes and 3 M KCl agar bridges.

TMEM16A = molecular target: T1, TMEM16A (Homo sapiens, UniProt Q5XXA6); test: TMEM16A plate reader assay in FRT cells expressing YFP and TMEM16A; assay type: cell-based; conditions: 10 μM
T1 construct: expressed in transfected cells; host or cells: Fischer rat thyroid (FRT) cells stably co-expressing YFP-H148Q
T1 sequence (Q5XXA6 1-986): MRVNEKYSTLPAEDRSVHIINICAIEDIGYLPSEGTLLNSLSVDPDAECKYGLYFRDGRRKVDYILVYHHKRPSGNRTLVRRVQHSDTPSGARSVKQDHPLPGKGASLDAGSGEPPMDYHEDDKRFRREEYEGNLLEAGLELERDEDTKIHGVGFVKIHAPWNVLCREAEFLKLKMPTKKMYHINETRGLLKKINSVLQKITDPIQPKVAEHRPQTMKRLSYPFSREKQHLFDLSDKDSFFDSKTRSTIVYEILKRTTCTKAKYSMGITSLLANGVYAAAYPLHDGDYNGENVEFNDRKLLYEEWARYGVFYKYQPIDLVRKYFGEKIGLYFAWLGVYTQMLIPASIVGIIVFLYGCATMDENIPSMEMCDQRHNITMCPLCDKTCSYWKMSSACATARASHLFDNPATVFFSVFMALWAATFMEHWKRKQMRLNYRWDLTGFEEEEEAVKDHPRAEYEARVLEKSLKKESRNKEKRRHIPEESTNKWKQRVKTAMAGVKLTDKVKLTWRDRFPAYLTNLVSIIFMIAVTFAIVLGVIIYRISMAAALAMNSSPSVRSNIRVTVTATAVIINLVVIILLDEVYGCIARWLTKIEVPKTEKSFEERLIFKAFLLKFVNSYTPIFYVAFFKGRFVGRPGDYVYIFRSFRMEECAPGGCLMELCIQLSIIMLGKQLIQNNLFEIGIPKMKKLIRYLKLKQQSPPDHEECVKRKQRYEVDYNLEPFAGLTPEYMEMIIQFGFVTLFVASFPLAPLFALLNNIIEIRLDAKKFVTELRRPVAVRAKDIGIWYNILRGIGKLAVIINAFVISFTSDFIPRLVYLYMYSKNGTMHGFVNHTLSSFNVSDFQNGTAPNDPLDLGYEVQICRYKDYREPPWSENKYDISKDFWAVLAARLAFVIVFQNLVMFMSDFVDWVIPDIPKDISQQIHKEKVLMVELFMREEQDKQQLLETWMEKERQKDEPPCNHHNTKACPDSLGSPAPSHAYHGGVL
Description: as §1

mice = test: Ocular toxicity after chronic topical dosing (slit-lamp, lissamine green staining); assay type: in vivo; conditions: two weeks, three times per day topical
Description: (§2) To assess corneal epithelial disruption, 5 μL of lissamine green (LG) dye (1%) was applied to the ocular surface of isofluorane-anesthetized mice. Photographs of the eye were taken using a Nikon Digital camera adapted to an Olympus Zoom Stereo Microscope (Olympus, Center Valley, Pa., USA). Each corneal quadrant was scored on a 3-point scale by one blinded, trained observer, with the extent of staining in each quadrant classified as: 0, no staining; 1, sporadic (involving <25% of the total surface) staining; grade 2, diffuse punctate staining (25-75%); and grade 3, coalesced punctate staining (≥75%). The total grade is reported as the sum of scores from all four quadrants, ranging from 0 to 12.
as §2, with “Lissamine green staining. To” for “To”

[2] = Compound accumulation in systemic tissues after 14 days topical dosing; assay type: in vivo, mouse; conditions: for amount in mouse blood, brain, liver and kidney (below limit of detection): two weeks, three times per day topical 0.1 nmol

| SMILES | effect on calcium-activated chloride channels in HT-29 cells (CaCC in HT-29 cells) | short-circuit current responses to ENaC, maximal forskolin or ATP [1] | effect on calcium-activated chloride channels in TMEM16A-expressing FRT cells (TMEM16A) | LG staining after chronic dosing (mice) | ocular toxicity (slit-lamp: conjunctival hyperemia, anterior chamber inflammation, lens clarity) (mice) | amount in mouse blood, brain, liver and kidney (below limit of detection) [2] | systemic absorption, in words ([2]; topical) | CFTR activation in HBE cells after forskolin ([1]; 0.1 μM, following 100 nM forskolin) | CFTR activation in HBE cells without forskolin ([1]; absence of basal CFTR phosphorylation) |
| --- | --- | --- | --- | --- | --- | --- | --- | --- | --- |
| CCN(CC)c1nc(Nc2ccc3ncsc3c2)nc(OC(C(F)(F)F)C(F)(F)F)n1 [6k, N′-(1,3-Benzothiazol-6-yl)-N,N-diethyl-6-[(1,1,1,3,3,3-hexafluoropropan-2-yl)oxy]-1,3,5-triazine-2,4-diamine] | no activation; also recorded: neither inhibited nor activated | did not alter short-circuit current responses | no inhibition; also recorded: neither inhibited nor activated |  |  |  |  |  |  |
| Nc1ccc([N+](=O)[O-])cc1-c1nc2ccccc2n(Cc2ccccc2)c1=O [CFTRact-J027, 3-(2-amino-5-nitrophenyl)-1-benzylquinoxalin-2(1H)-one] |  |  |  | no corneal or conjunctival epithelial disruption | no signs of ocular toxicity | < 700 fmol |  |  |  |
| CCN(CC)c1nc(Nc2ccccc2)nc(OC(C(F)(F)F)C(F)(F)F)n1 [CFTRact-K089, N,N-Diethyl-6-[(1,1,1,3,3,3-hexafluoropropan-2-yl)oxy]-N′-phenyl-1,3,5-triazine-2,4-diamine] |  |  |  | no corneal or conjunctival epithelial disruption | no signs of ocular toxicity | < 10 fmol | without detectable systemic absorption |  |  |
| CNc1nc(Nc2ccccc2)nc(OCC(F)(F)C(F)F)n1 [compound 12, N-methyl-N′-phenyl-6-(2,2,3,3-tetrafluoropropoxy)-1,3,5-triazine-2,4-diamine] | no activation; also recorded: neither inhibited nor activated | did not alter short-circuit current responses | no inhibition; also recorded: neither inhibited nor activated |  |  |  |  | fully activated CFTR | did not activate CFTR |
